Test results published in patent publication US6528517B1, “Synthesis of quinobenzoxazine analogues with topoisomerase II and quadruplex interactions for use as antineoplastic agents” (Board of Regents, The University of Texas System, priority 1998, dated 2003).

How the values were obtained:
MDA-231 breast = test: Cancer cell growth inhibition assay (MTT); format: cell-based, human; details: Homo sapiens, MDA-MB-231
Raji lymphoma = test: Cancer cell growth inhibition assay (MTT); format: cell-based, human; details: Homo sapiens, Raji
DU-145 prostate = test: Cancer cell growth inhibition assay (MTT); format: cell-based, human; details: Homo sapiens, DU-145
HT-29 colon = test: Cancer cell growth inhibition assay (MTT); format: cell-based, human; details: Homo sapiens, HT-29
H226 non-small-cell lung = test: Cancer cell growth inhibition assay (MTT); format: cell-based, human; details: Homo sapiens, NCI-H226
Drosophila topo II = target: T1, Drosophila topo II (Drosophila melanogaster, UniProt P15348); test: Topo II cleavage reaction; format: biochemical; details: up to 10 μM
T1 construct: purchased Amersham
T1 sequence (P15348 1-1447): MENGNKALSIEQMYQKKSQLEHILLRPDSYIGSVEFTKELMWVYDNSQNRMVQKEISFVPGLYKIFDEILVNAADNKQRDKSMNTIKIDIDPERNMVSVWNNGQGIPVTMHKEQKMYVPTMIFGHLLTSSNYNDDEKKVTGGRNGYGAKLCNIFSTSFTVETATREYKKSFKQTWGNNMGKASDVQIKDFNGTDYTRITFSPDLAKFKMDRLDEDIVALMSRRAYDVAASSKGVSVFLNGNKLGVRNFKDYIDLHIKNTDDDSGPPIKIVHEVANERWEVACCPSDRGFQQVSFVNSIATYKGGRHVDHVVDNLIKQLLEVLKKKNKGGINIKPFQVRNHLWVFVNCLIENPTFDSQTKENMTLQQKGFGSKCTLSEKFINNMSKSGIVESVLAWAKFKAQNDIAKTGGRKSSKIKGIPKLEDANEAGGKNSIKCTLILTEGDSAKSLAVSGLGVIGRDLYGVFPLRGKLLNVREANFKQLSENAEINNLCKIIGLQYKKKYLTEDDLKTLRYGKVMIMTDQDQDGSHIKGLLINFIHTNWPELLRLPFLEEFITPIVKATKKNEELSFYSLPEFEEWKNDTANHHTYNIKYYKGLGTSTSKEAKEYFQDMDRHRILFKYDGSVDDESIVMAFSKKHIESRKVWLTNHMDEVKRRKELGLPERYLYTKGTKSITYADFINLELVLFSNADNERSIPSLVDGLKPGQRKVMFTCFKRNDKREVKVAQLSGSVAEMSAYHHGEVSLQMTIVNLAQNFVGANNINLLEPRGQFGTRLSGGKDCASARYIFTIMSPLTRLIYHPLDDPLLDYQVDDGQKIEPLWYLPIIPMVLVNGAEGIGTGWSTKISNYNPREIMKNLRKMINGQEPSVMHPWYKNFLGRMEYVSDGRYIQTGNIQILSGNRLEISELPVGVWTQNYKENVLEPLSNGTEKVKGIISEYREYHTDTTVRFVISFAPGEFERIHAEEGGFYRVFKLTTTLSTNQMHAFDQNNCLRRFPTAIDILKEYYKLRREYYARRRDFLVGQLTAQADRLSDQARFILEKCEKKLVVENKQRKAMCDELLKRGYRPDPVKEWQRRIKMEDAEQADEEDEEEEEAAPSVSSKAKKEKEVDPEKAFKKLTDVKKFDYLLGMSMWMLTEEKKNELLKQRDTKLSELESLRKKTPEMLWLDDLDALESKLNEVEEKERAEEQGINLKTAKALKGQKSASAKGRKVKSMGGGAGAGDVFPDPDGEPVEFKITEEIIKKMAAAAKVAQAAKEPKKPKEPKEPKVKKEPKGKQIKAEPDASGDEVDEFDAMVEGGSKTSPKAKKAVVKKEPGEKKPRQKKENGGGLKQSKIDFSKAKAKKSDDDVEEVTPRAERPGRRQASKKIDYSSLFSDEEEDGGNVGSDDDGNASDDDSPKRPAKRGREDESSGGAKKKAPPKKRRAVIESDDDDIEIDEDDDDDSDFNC
Protocol: FIGS. 5, A-B. Effect of A-62176 (I in FIG. 2) on DNA cleavage by topo II in the presence of ATP. (A) Autoradiogram of a 12% denaturing polyacrylamide gel showing topo II-mediated cleavage pattern in the presence of A-62176. The cleavage reaction was done in a reaction buffer containing 10 mM imidazole-HCl (pH 6.0), 10 mM MgCl2, 50 mM KCl, and 1 mM ATP, as described in the Materials and Methods section. Lanes 1-7 contain 20 units of Drosophila topo II. Lane 1 contains no drug. Lanes 2-7 contain 0.2, 0.5, 1, 2, 5 and 10 μM of A-62176, respectively. (B) Topo II cleavage products indicated by arrows in (A) were quantitated using a PhosphorImager and analyzed using ImageQuanNT software (Molecular Dynamics). The intensity of the topo II-mediated cleavage was determined from the volume of the bands [indicated by arrows in (A)] normalized by the total radioactivity in each lane.
5′^32P-labeled DNA was incubated with Drosophila topo II in 20 μl of a reaction buffer [10 mM imidazole-HCl (pH 6.0), 10 mM MgCl2, 50 mM KCl, and 1 mM ATP] at 30° C. for 10 min in the presence of various amounts of A-62176. Reactions were terminated by adding SDS to 1%, and topo II was removed by proteinase K digestion (100 μg/ml) at 42° C. for 1 hr followed by phenol/chloroform extraction and ethanol precipitation.

Structure (SMILES): N[C@H]1CCN(c2c(F)cc3c(=O)c(C(=O)O)cn4c3c2Oc2ccccc2-4)C1 [Compound A-62176, 1-(3-aminopyrrolidin-1-yl)-2-fluoro-4-oxo-4H-quino[2,3,4-i,j][1,4]benzoxazine-5-carboxylic acid, reference compound]
- IC50 (MDA-231 breast): 160 ± 20 nM
- IC50 (Raji lymphoma): 50 ± 6 nM
- IC50 (DU-145 prostate): 160 ± 30 nM
- IC50 (HT-29 colon): 160 ± 10 nM
- IC50 (H226 non-small-cell lung): 90 ± 3 nM
- topo II-mediated cleavage (Drosophila topo II): enhance
